Molecular target: T1, Gal4-DBD-RXRα-LBD (Homo sapiens, UniProt P19793)
T1 sequence (P19793 227-458 limits assumed): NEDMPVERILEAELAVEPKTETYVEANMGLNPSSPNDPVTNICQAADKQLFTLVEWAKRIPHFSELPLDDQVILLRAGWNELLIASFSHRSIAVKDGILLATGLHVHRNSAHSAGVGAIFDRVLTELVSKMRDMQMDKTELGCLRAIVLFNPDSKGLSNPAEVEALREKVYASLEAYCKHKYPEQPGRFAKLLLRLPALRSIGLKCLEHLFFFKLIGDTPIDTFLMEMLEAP
Experiment: cell-based
Conditions: HEK-293T, read-out: inhibition of 9-cis-RA-induced RXRα transactivation

- inhibition at 1 µM: > 50%
Compound: Cc1ccc(NC(=O)NNC(=O)c2ccc(Nc3nccc(-c4cccnc4)n3)cc2)cc1 [Compound 6k, 2-(4-((4-(pyridin-3-yl)pyrimidin-2-yl)amino)benzoyl)-N-(p-tolyl)hydrazine-1-carboxamide]
